Patent US10189841B2, “Purinones as ubiquitin-specific protease 1 inhibitors” (Forma Therapeutics, Inc., priority 2015, dated 2019)

Target: USP1 (construct USP1 (I-785, GG670, 671AA)/UAF1 (I-677)-Flag) (Homo sapiens (Human), UniProt O94782, G670A/G671A)
Assay: Ubiquitin-Rhodamine 110 assay for USP1 activity
Assay type: biochemical
Details: USP1/UAF1 25 pM, Ub-Rh110 25 nM, 30 min preincubation
Outline: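 Ub-Rh110 (25 nM, ≪Km) cleavage read at ex 485/em 535 in Tris pH 8.0, CaCl2, GSH, Prionex, Triton X-100. The screen used 10 µM compound, 100 pM USP1/UAF1 and 45 min at RT.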

USP1 (construct USP1 (I-785, GG670, 671AA)/UAF1 (I-677)-Flag), sequence (O94782 whole entry G670A/G671A): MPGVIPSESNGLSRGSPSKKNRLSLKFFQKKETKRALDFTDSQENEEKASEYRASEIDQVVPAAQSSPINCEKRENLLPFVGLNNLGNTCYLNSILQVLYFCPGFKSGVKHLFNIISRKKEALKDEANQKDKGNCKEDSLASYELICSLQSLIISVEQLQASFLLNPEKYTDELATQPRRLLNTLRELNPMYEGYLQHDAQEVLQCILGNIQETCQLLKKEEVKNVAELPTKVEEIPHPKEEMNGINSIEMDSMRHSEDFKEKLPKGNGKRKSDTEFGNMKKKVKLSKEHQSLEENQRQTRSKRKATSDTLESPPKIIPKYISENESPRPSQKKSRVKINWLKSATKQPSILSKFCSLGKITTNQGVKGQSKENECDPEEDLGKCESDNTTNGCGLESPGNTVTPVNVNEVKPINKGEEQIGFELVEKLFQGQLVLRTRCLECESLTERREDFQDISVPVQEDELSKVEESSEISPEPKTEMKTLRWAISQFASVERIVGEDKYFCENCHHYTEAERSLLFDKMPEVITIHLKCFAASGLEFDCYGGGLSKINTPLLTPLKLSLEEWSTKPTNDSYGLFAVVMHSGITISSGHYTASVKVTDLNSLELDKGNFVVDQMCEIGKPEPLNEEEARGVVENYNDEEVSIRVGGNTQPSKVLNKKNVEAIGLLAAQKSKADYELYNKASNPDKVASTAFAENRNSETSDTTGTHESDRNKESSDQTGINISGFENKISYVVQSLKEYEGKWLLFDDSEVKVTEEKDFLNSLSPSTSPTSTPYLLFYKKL
USP1 (construct USP1 (I-785, GG670, 671AA)/UAF1 (I-677)-Flag), sequence (Q8TAF3 whole entry partner): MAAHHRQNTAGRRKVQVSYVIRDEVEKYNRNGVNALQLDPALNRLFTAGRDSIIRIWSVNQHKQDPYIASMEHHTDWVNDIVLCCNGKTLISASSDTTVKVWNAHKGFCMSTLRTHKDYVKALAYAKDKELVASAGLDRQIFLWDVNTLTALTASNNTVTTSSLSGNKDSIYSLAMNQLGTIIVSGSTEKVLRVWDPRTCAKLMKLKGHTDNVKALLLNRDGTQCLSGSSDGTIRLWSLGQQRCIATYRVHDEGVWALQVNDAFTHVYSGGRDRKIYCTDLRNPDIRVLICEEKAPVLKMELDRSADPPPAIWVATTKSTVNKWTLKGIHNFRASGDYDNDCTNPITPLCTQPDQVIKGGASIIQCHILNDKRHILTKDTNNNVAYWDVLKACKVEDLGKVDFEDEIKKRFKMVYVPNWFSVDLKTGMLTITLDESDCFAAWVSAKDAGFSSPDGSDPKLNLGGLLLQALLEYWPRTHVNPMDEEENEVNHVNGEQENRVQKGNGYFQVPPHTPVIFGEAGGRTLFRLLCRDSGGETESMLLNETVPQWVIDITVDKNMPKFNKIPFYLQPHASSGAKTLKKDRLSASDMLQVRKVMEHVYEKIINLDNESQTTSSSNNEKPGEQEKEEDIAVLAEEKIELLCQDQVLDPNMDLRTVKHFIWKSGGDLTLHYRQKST

SMILES	IC50 [µM]
CC(C)c1c(F)cccc1-c1ncc2[nH]c(=O)n(Cc3ccc(-n4ccc(C5CCNCC5)n4)cc3)c2n1 [Compound I-434, 2-(3-fluoro-2-isopropylphenyl)-9-(4-(3-(piperidin-4-yl)-1H-pyrazol-1-yl)benzyl)-7,9-dihydro-8H-purin-8-one]	0.05 to 0.2
CC(C)c1ncccc1-c1ncc2[nH]c(=O)n(Cc3ccc(-n4ccc(C5CCNCC5)n4)cc3)c2n1 [Compound I-435, 2-(2-isopropylpyridin-3-yl)-9-(4-(3-(piperidin-4-yl)-1H-pyrazol-1-yl)benzyl)-7,9-dihydro-8H-purin-8-one]	> 2
CC(C)c1ccccc1-c1ncc2c(n1)n(Cc1ccc(-c3nc(C(F)(F)F)cn3C3CNC3)cc1)c(=O)n2C [Compound I-436, 9-(4-(1-(azetidin-3-yl)-4-(trifluoromethyl)-1H-imidazol-2-yl)benzyl)-2-(2-isopropylphenyl)-7-methyl-7,9-dihydro-8H-purin-8-one]	< 0.05
CC(C)c1ccccc1-c1ncc2[nH]c(=O)n(Cc3ccc(-c4ncc[nH]4)cc3)c2n1 [Compound I-437, 9-(4-(1H-imidazol-2-yl)benzyl)-2-(2-isopropylphenyl)-7,9-dihydro-8H-purin-8-one]	< 0.05
CC(C)c1ncccc1-c1ncc2[nH]c(=O)n(Cc3ccc(-c4nc(C(F)(F)F)cn4C4CN(C)C4)cc3)c2n1 [Compound I-438, 2-(2-Isopropylpyridin-3-yl)-9-(4-(1-(1-methylazetidin-3-yl)-4-(trifluoromethyl)-1H-imidazol-2-yl)benzyl)-7,9-dihydro-8H-purin-8-one]	< 0.05
CC(C)c1ccccc1-c1ncc2[nH]c(=O)n(Cc3ccc(-n4ccc(C5CCN(C)CC5)n4)cc3)c2n1 [Compound I-439, 2-(2-isopropylphenyl)-9-(4-(3-(1-methylpiperidin-4-yl)-1H-pyrazol-1-yl)benzyl)-7,9-dihydro-8H-purin-8-one]	0.05 to 0.2
CC(C)c1ccccc1-c1ncc2[nH]c(=O)n(Cc3ccc(-n4ccc(C5CCN(C)C5)n4)cc3)c2n1 (stereo not drawn) [Compound I-440, 2-(2-isopropylphenyl)-9-(4-(3-(1-methylpyrrolidin-3-yl)-1H-pyrazol-1-yl)benzyl)-7,9-dihydro-8H-purin-8-one]	0.2 to 2
CC(C)c1c(F)cccc1-c1ncc2[nH]c(=O)n(Cc3ccc(-n4ccc(C5CCN(C)CC5)n4)cc3)c2n1 [Compound I-441, 2-(3-fluoro-2-isopropylphenyl)-9-(4-(3-(1-methylpiperidin-4-yl)-1H-pyrazol-1-yl)benzyl)-7,9-dihydro-8H-purin-8-one]	0.05 to 0.2
CC(C)c1ncccc1-c1ncc2[nH]c(=O)n(Cc3ccc(-n4ccc(C5CCN(C)CC5)n4)cc3)c2n1 [Compound I-442, 2-(2-isopropylpyridin-3-yl)-9-(4-(3-(1-methylpiperidin-4-yl)-1H-pyrazol-1-yl)benzyl)-7,9-dihydro-8H-purin-8-one]	> 2
CN1CCC(c2ccn(-c3ccc(Cn4c(=O)[nH]c5cnc(-c6cccnc6OCC(F)(F)F)nc54)cc3)n2)CC1 [Compound I-443, 9-(4-(3-(1-methylpiperidin-4-yl)-1H-pyrazol-1-yl)benzyl)-2-(2-(2,2,2-trifluoroethoxy)pyridin-3-yl)-7,9-dihydro-8H-purin-8-one]	0.2 to 2
CC(C)c1ccccc1-c1ncc2[nH]c(=O)n(Cc3ccc(-n4ccc(C5CCCN(C)C5)n4)cc3)c2n1 (stereo not drawn) [Compound I-444, 2-(2-isopropylphenyl)-9-(4-(3-(1-methylpiperidin-3-yl)-1H-pyrazol-1-yl)benzyl)-7,9-dihydro-8H-purin-8-one]	< 0.05
CC(C)c1ccccc1-c1ncc2[nH]c(=O)n(Cc3ccc(-c4nc(C5CCN(C)CC5)cn4C)cc3)c2n1 [Compound I-445, 2-(2-isopropylphenyl)-9-(4-(1-methyl-4-(1-methylpiperidin-4-yl)-1H-imidazol-2-yl)benzyl)-7,9-dihydro-8H-purin-8-one]	< 0.05
CC(C)c1ccccc1-c1ncc2[nH]c(=O)n(Cc3ccc(-c4ncc(C5CCN(C)CC5)n4C)cc3)c2n1 [Compound I-446, 2-(2-isopropylphenyl)-9-(4-(1-methyl-5-(1-methylpiperidin-4-yl)-1H-imidazol-2-yl)benzyl)-7,9-dihydro-8H-purin-8-one]	< 0.05
CC(C)c1ccccc1-c1ncc2[nH]c(=O)n(Cc3ccc(-c4nc(C(F)(F)F)cn4C4CN(C)C4)cc3)c2n1 [Compound I-447, 2-(2-isopropylphenyl)-9-(4-(1-(1-methylazetidin-3-yl)-4-(trifluoromethyl)-1H-imidazol-2-yl)benzyl)-7,9-dihydro-8H-purin-8-one]	< 0.05
CC(C)c1ccccc1-c1ncc2c(n1)n(Cc1ccc(-c3nc(C(F)(F)F)cn3C3CN(C)C3)cc1)c(=O)n2C [Compound I-448, 2-(2-isopropylphenyl)-7-methyl-9-(4-(1-(1-methylazetidin-3-yl)-4-(trifluoromethyl)-1H-imidazol-2-yl)benzyl)-7,9-dihydro-8H-purin-8-one]	< 0.05
CC(C)c1ccccc1-c1ncc2c(n1)n(CC1CCN(S(=O)(=O)c3cccnc3)CC1)c(=O)n2C [Compound I-449, 2-(2-isopropylphenyl)-7-methyl-9-((1-(pyridin-3-ylsulfonyl)piperidin-4-yl)methyl)-7,9-dihydro-8H-purin-8-one]	> 2
CC(C)c1ccccc1-c1ncc2c(n1)n(CC1CCN(S(=O)(=O)C(C)C)CC1)c(=O)n2C [Compound I-450, 2-(2-isopropylphenyl)-9-((1-(isopropylsulfonyl)piperidin-4-yl)methyl)-7-methyl-7,9-dihydro-8H-purin-8-one]	0.05 to 0.2
CC(C)c1ccccc1-c1ncc2c(n1)n(CC1CCN(S(=O)(=O)c3nccn3C)CC1)c(=O)n2C [Compound I-451, 2-(2-isopropylphenyl)-7-methyl-9-((1-((1-methyl-1H-imidazol-2-yl)sulfonyl)piperidin-4-yl)methyl)-7,9-dihydro-8H-purin-8-one]	0.2 to 2
CC(C)c1ccccc1-c1ncc2[nH]c(=O)n(C3CCC34CN(S(=O)(=O)C(C)C)C4)c2n1 (stereo not drawn) [Compound I-452, 2-(2-isopropylphenyl)-9-(2-(isopropylsulfonyl)-2-azaspiro[3.3]heptan-5-yl)-7,9-dihydro-8H-purin-8-one]	0.2 to 2
CC(C)c1ccccc1-c1ncc2c(n1)n(Cc1ccc(NS(=O)(=O)c3ccn(C)n3)cc1)c(=O)n2C [Compound I-453, N-(4-((2-(2-isopropylphenyl)-7-methyl-8-oxo-7,8-dihydro-9H-purin-9-yl)methyl)phenyl)-1-methyl-1H-pyrazole-3-sulfonamide]	> 2
CC(C)c1ccccc1-c1ncc2c(n1)n(Cc1ccc(NS(=O)(=O)c3nccn3C)cc1)c(=O)n2C [Compound I-454, N-(4-((2-(2-isopropylphenyl)-7-methyl-8-oxo-7,8-dihydro-9H-purin-9-yl)methyl)phenyl)-1-methyl-1H-imidazole-2-sulfonamide]	0.2 to 2
Cc1nc(S(=O)(=O)Nc2ccc(Cn3c(=O)n(C)c4cnc(-c5ccccc5C(C)C)nc43)cc2)cn1C [Compound I-455, N-(4-((2-(2-isopropylphenyl)-7-methyl-8-oxo-7,8-dihydro-9H-purin-9-yl)methyl)phenyl)-1,2-dimethyl-lH-imidazole-4-sulfonamide]	> 2
CC(C)c1ccccc1-c1ncc2c(n1)n(Cc1ccc(N(C)S(=O)(=O)c3ccn(C)n3)cc1)c(=O)n2C [Compound I-456, N-(4-((2-(2-isopropylphenyl)-7-methyl-8-oxo-7,8-dihydro-9H-purin-9-yl)methyl)phenyl)-N,1-dimethyl-1H-pyrazole-3-sulfonamide]	0.05 to 0.2
CC(C)c1ccccc1-c1ncc2c(n1)n(Cc1ccc(N(C)S(=O)(=O)c3nccn3C)cc1)c(=O)n2C [Compound I-457, N-(4-((2-(2-isopropylphenyl)-7-methyl-8-oxo-7,8-dihydro-9H-purin-9-yl)methyl)phenyl)-N,1-dimethyl-1H-imidazole-2-sulfonamide]	0.05 to 0.2
Cc1nc(S(=O)(=O)N(C)c2ccc(Cn3c(=O)n(C)c4cnc(-c5ccccc5C(C)C)nc43)cc2)cn1C [Compound I-458, N-(4-((2-(2-isopropylphenyl)-7-methyl-8-oxo-7,8-dihydro-9H-purin-9-yl)methyl)phenyl)-N,1,2-trimethyl-1H-imidazole-4-sulfonamide]	0.2 to 2
CC(C)c1ccccc1-c1ncc2c(n1)n(Cc1ccc(N(C)S(C)(=O)=O)cc1)c(=O)n2C [Compound I-459, N-(4-((2-(2-isopropylphenyl)-7-methyl-8-oxo-7,8-dihydro-9H-purin-9-yl)methyl)phenyl)-N-methylmethanesulfonamide]	0.2 to 2
CC(C)c1ccccc1-c1ncc2[nH]c(=O)n(CC3(F)CCN(S(=O)(=O)C4CC4)CC3)c2n1 [Compound I-460, 9-((1-(cyclopropylsulfonyl)-4-fluoropiperidin-4-yl)methyl)-2-(2-isopropylphenyl)-7,9-dihydro-8H-purin-8-one]	0.2 to 2
CC(C)c1ccccc1-c1ncc2[nH]c(=O)n(CC3CCN(S(=O)(=O)C4CC4)CC3)c2n1 [Compound I-461, 9-((1-(cyclopropylsulfonyl)piperidin-4-yl)methyl)-2-(2-isopropylphenyl)-7,9-dihydro-8H-purin-8-one]	0.05 to 0.2
CC(C)C(=O)N1CCC(Cn2c(=O)n(C)c3cnc(-c4ccccc4C(C)C)nc32)CC1 [Compound I-462, 9-((1-isobutyrylpiperidin-4-yl)methyl)-2-(2-isopropylphenyl)-7-methyl-7,9-dihydro-8H-purin-8-one]	> 2
CC(=O)N1CCC(c2ccn(-c3ccc(Cn4c(=O)[nH]c5cnc(-c6ccccc6C(C)C)nc54)cc3)n2)CC1 [Compound I-463, 9-(4-(3-(1-acetylpiperidin-4-yl)-1H-pyrazol-1-yl)benzyl)-2-(2-isopropylphenyl)-7,9-dihydro-8H-purin-8-one]	< 0.05
